PubChem BioAssay (NCI)
Values joined by “and” are separate entries in the source; they are usually repeats but may differ in a detail not shown here. Equal values may be shown once.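 Cells were grown in 96-well plates and exposed to each compound for 48 hours at five concentrations; endpoints were interpolated linearly between bracketing concentrations, or set to the highest concentration if not reached. GI50 is the concentration that inhibits growth by half. TGI is the concentration that stops growth completely.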 Where a SMILES comes first, the peptide text is derived from it. [ ]: non-standard residue; d: D form.

Experiments:
Test in all cases: NCI anticancer screen, dose series, 48 h
[1] = test system: CAKI-1 renal
[2] = test system: HCT-116 colon
[3] = test system: HL-60(TB) leukemia
[4] = test system: LOX IMVI melanoma
[5] = test system: OVCAR-4 ovarian
[6] = test system: RPMI-8226 leukemia
[7] = test system: SK-OV-3 ovarian
[8] = test system: SN12C renal
[9] = test system: K-562 leukemia
[10] = test system: SF-268 CNS

Row | SMILES | TGI [1] [µM] | TGI [2] [µM] | TGI [3] [µM] | TGI [4] [µM] | TGI [5] | TGI [6] | TGI [7] | TGI [8] [µM] | TGI [9] [µM] | TGI [10] [µM] | GI50 [1] [µM] | GI50 [3] [µM] | GI50 [9] [µM] | GI50 [4] | GI50 [5] | GI50 [6] [µM] | GI50 [10] [µM] | GI50 [7] | GI50 [8] [µM]
1 | Cc1[nH]c(=O)nc(NNCc2ccc(Cl)cc2)c1C(=O)Nc1ccc(Cl)cc1 | > 100 | > 100 | > 100 | > 100 | > 100 µM | > 100 µM | > 100 µM | > 100 | – | – | – | – | – | – | – | – | – | – | –
2 | c1ccc([I+]c2ccccc2)cc1 | > 100 | > 100 | > 100 | > 100 | > 100 µM | > 100 µM | > 100 µM | > 100 | > 100 | > 100 | – | – | – | – | – | – | – | – | –
3 | NS(=O)(=O)c1ccc(/C=C/c2ccc(O)cc2)cc1 | 32.6 | 85.6 | > 100 | > 100 | > 100 µM | 39.3 µM | 59.5 µM | > 100 | > 100 | > 100 | 5.59 | 4.35 | 24.9 | 19.1 µM | 36.9 µM | 7.09 | 31.5 | – | –
4 | CCOC(=O)/C=C(/C)Nc1nc2c(c(C(=O)OC)c1C#N)CCCC2 | > 100 | > 100 | > 100 | > 100 | > 100 µM | > 100 µM | > 100 µM | > 100 | > 100 | > 100 | – | – | – | – | – | – | – | – | –
5 | CC(=O)Oc1ccc2c3c1O[C@H]1[C@H](O)CC[C@@]4(O)[C@@H](C2)N(C)CC[C@]314 | > 100 | > 100 | > 100 | > 100 | > 100 µM | > 100 µM | > 100 µM | > 100 | – | > 100 | – | – | – | – | – | – | – | – | –
6 | Cc1nc2sccn2c1/C=C1/C(=O)Nc2cccc(Cl)c21 | > 100 | > 100 | > 100 | > 100 | – | > 100 µM | > 100 µM | > 100 | > 100 | > 100 | – | – | – | – | – | – | – | – | –
7 | COC(=O)/C=C1/OC(c2ccc(OC)cc2)=C(Cl)C1=O | 27 | 26.5 | 12.2 | 21.2 | 30.1 µM | 13.6 µM | 25.2 µM | 40.4 | 11.3 | 36.8 | – | – | – | – | – | – | – | – | –
8 | CCOP(=O)(OCC)OC1c2[nH]cc(C(=O)OCc3ccccc3)c2-c2cc(C(=O)OC)[nH]c2C1OC (stereo not given) | > 100 | > 85.4 | > 100 | > 41.4 | > 100 µM | > 100 µM | 58 µM | > 100 | > 100 | > 96 | – | – | – | – | – | – | – | – | –
9 | O=C(N/N=C/c1ccccc1)c1cccc2nc3ccccc3nc12 | > 100 | > 100 | > 100 | > 100 | > 100 µM | > 100 µM | > 100 µM | > 100 | > 100 | > 100 | – | – | – | – | – | – | – | – | –
10 | C#CC1(O)CCCCCCCCC2(CCCCCCCC1)OCCO2 | 24.7 | 30.4 | 40.9 | 38.1 | 19.5 µM | 22 µM | 33.2 µM | 31.5 | 43.6 | 34.2 | – | – | – | – | – | – | – | – | –
11 | Cc1cc(S(=O)(=O)/N=C(\[N-]S(=O)(=O)c2cc(Cl)sc2Cl)[n+]2ccc(N(C)C)cc2)c(S)cc1Cl | > 100 | 55.5 | > 100 | > 100 | > 100 µM | > 100 µM | > 100 µM | – | > 100 | > 100 | – | – | – | – | – | – | – | – | –
12 | CCOC(=O)c1nc2ccc(C(F)(F)F)cc2nc1Oc1ccc(C(=O)OC)cc1 | > 100 | > 100 | > 100 | > 100 | > 100 µM | > 100 µM | > 100 µM | – | > 100 | > 100 | – | – | – | – | – | – | – | – | –
13 | COc1cc2c(c(OC)c1OC)-c1ccc(SC)cc1C(O)CC2 (stereo not given) | 15.7 | > 100 | < 0.01 | 74.1 | > 100 µM | > 100 µM and 45.9 µg/mL | – | 23.6 | < 0.01 | 11.6 | – | – | – | – | – | – | – | – | –
14 | COc1cc(OC)c2[nH]c3c(O)c(-c4c(C)cc5c([nH]c6c(OC)cc(OC)cc65)c4O)c(C)cc3c2c1 | 22.1 | 15.7 | 10.5 | 14.6 | 21.4 µM | 23.7 µM | – | – | 20.5 | 15.9 | 9.89 | 2.82 | 9.7 | – | – | 10.5 | – | – | –
15 | COc1ccc2nc3cccc([N+](=O)[O-])c3c(NCCCO)c2c1 | 0.0248 | 1.01 | – | – | 0.0312 µM and 0.0859 µM | 0.219 µM | 0.184 µM and 0.563 µM | 0.0193 | – | – | – | 0.00233 | – | 0.0085 µM and 0.0471 µM | 0.0104 µM and 0.023 µM | – | 0.00101 | 0.0375 µM and 0.0452 µM | 0.00174
16 | O=C1CC(=O)NC(=NNS(=O)(=O)c2ccc(Cl)cc2)N1 | > 100 | > 100 | > 100 | – | > 100 µM | > 100 µM | > 100 µM | > 100 | > 100 | > 100 | – | – | – | – | – | – | – | – | –

Row | SMILES | TGI [1] [µM] | TGI [2] [µM] | TGI [3] [µM] | TGI [4] [µM] | TGI [5] | TGI [6] | TGI [7] | TGI [8] [µM] | TGI [9] [µM] | TGI [10] [µM] | GI50 [1] [µM] | GI50 [3] [µM] | GI50 [9] [µM] | GI50 [4] | GI50 [5] | GI50 [6] [µM] | GI50 [10] [µM] | GI50 [7] | GI50 [8] [µM]
17 | O=c1oc2c(Cl)cc(Cl)cc2cc1C1=CSC2=NCCN12 | > 100 | > 100 | > 100 | > 100 | > 100 µM | > 100 µM | > 100 µM | > 100 | > 100 | – | – | – | – | – | – | – | – | – | –
18 | O=C(c1cc2c(c3ccccc13)NC1(CCCCC1)N=C2C(F)(F)F)C(F)(F)F | 13.1 | 12.6 | 9.89 | 12.1 | 14.9 µM | – | 18.7 µM | 13.2 | 16.8 | 20 | – | – | – | – | – | – | – | – | –
19 | CC1(C)N=C(C2CCCN2C(=O)OCc2ccccc2)OC1=O (stereo not given) | > 100 | > 100 | > 100 | > 100 | – | > 100 µM | > 100 µM | > 100 | > 100 | > 100 | – | – | – | – | – | – | – | – | –
20 | Cc1ccc(C(=O)N/N=C(\N=Nc2ccc(C(=O)O)cc2)c2ccc(N(CCC#N)CCC#N)cc2C)cc1 | > 100 | > 100 | > 100 | > 100 | > 100 µM | > 100 µM | > 100 µM | > 100 | > 100 | – | – | – | – | – | – | – | – | – | –
21 | O=C(Nc1ccc(Cl)cc1)c1cc(S(=O)(=O)Nc2nnc3c(Cl)cc(C(F)(F)F)cn23)c(S)cc1Cl | > 100 | > 100 | > 100 | – | > 100 µM | > 100 µM | > 100 µM | > 100 | > 100 | > 100 | – | – | – | – | – | – | – | – | –
22 | Cc1ccc(N(C)S(=O)(=O)c2ccccc2[N+](=O)[O-])cc1 | > 100 | > 100 | > 100 | > 100 | > 100 µM | > 100 µM | – | > 100 | – | > 100 | – | – | – | – | – | – | – | – | –
23 | CC(=O)OC(Cc1c(O)c2c(C)cccc2oc1=O)C(C)(C)O (stereo not given) | > 100 | > 100 | > 100 | > 100 | – | > 100 µM | > 100 µM | > 100 | > 100 | > 100 | – | – | – | – | – | – | – | – | –
24 | CN1CC2CN(Cc3ccccc3)CCN2c2cccnc21 (stereo not given) | > 100 | 37.7 | > 100 | 49.4 | > 100 µM | > 100 µM | > 100 µM | – | > 100 | > 100 | – | – | – | – | – | – | – | – | –
25 | COc1cccc(C2c3cc4c(cc3OC(Nc3ccccc3)C2C)OCO4)c1OC (stereo not given) | > 100 | > 100 | 6.26 | > 100 | – | 17.8 µM | > 100 µM | > 100 | > 100 | > 100 | – | – | – | – | – | – | – | – | –
26 | COc1ccc(-c2oc3c(OC)c(OC)cc(O)c3c(=O)c2OC)cc1 | > 100 | > 100 | > 100 | > 100 | > 100 µM | – | > 100 µM | > 100 | > 100 | > 100 | – | – | – | – | – | – | – | – | –
27 | CN(C)Cc1cc(N=Nc2ccc(Cl)cc2)cc(CN(C)C)c1O | 26.8 | 17.5 | 4.94 | 16.1 | – | 37 µM | 33.3 µM | 23.8 | 6.75 | 30.3 | – | – | – | – | – | – | – | – | –
28 | Cn1cc(-c2csc(-c3cn(C)c4ccccc34)n2)c2ccccc21 | > 100 | > 100 | > 100 | > 100 | > 100 µM | 85 µM | – | > 100 | 31.9 | > 100 | – | – | – | – | – | – | – | – | –
29 | OC1CSc2nc3ccccc3n2C1 (stereo not given) | > 100 | > 100 | > 100 | > 100 | – | > 100 µM | > 100 µM | > 100 | > 100 | > 100 | – | – | – | – | – | – | – | – | –
30 | CSc1nc2c(c(=O)[nH]1)N=C(c1ccccc1)CC(c1ccccc1)N2 (stereo not given) | > 100 | 97.5 | 59.2 | > 100 | 95.2 µM | 71 µM | 89.7 µM | 56.6 | 68.4 | – | – | – | – | – | – | – | – | – | –
31 | CC(=O)CC1=C(OC(C)C)C2(OCCO2)C1O (stereo not given) | > 100 | > 100 | > 100 | > 100 | > 100 µM | – | > 100 µM | > 100 | – | > 100 | – | – | – | – | – | – | – | – | –
32 | CC(C)C[C@H](NC(=O)[C@H](CC(C)C)NC(=O)[C@@H](Cc1c[nH]c2ccccc12)NC(=O)[C@H](Cc1ccccc1)NC(=O)[C@@H](Cc1c[nH]c2ccccc12)NC(=O)[C@H](CCC(N)=O)NC(=O)[C@H](CCC(N)=O)NC(=O)[C@H]1CCCN1C(=O)[C@@H](N)CCCCN)C(N)=O (H-K[dP]QQ[dW]F[dW]LL-NH2) | – | > 100 | > 100 | > 100 | > 100 µM | > 100 µM | > 100 µM | > 100 | > 100 | > 100 | – | – | – | – | – | – | – | – | –
